From patent US9593108B2, “Compounds and methods for antiviral treatment” (PTC Therapeutics, Inc., priority 2009, dated 2017)

How the values were obtained:
[1] = system: HCV replicon RNA (GenBank Accession No. AJ242654); assay: HCV Replicon Assay (replicon RNA reduction and/or Fluc reporter signal); type: cell-based, Hepatitis C virus; details: Hepatitis C virus, 72 h, replicon-containing cells cultured with test compound for up to 3 days
How it was run: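 Bicistronic replicon-containing cells cultured with compound for up to 3 days, with interferon as positive control. Inhibition quantified by replicon RNA reduction and/or Fluc reporter signal; IC50 values generally derived from replicon RNA reduction.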

CC(C)(C)NS(=O)(=O)c1ccc(-c2c(C#N)c3cc(C(F)(F)F)cnc3n2CC2CC2)nc1 [Cpd 296, N-tert-butyl-6-[3-cyano-1-(cyclopropylmethyl)-5-(trifluoromethyl)-1H-pyrrolo[2,3-b]pyridin-2-yl]pyridine-3-sulfonamide]
IC50 [1]: < 500 nM | melting point: 179 to 180 °C

CC(C)(C)NS(=O)(=O)c1ccc(-c2c(C#N)c3cc(C(F)(F)F)cnc3n2C2CCC2)nc1 [Cpd 297, N-tert-butyl-6-[3-cyano-1-cyclobutyl-5-(trifluoromethyl)-1H-pyrrolo[2,3-b]pyridin-2-yl]pyridine-3-sulfonamide]
IC50 [1]: < 500 nM | melting point: 176 to 178 °C

Cc1cc(-c2c(C#N)c3cc(C(F)(F)F)cnc3n2C2CCC2)ncc1S(=O)(=O)N[C@@H](C)C(F)(F)F [Cpd 298, 6-[3-cyano-1-cyclobutyl-5-(trifluoromethyl)-1H-pyrrolo[2,3-b]pyridin-2-yl]-4-methyl-N-[(2S)-1,1,1-trifluoropropan-2-yl]pyridine-3-sulfonamide]
IC50 [1]: < 500 nM | melting point: 166 to 171 °C

Cc1cnc2c(c1)c(C#N)c(-c1cccc(NS(=O)(=O)C(C)C)c1)n2C1CCC1 [Cpd 299, N-[3-(3-cyano-1-cyclobutyl-5-methyl-1H-pyrrolo[2,3-b]pyridin-2-yl)phenyl]propane-2-sulfonamide]
IC50 [1]: 2000 to 5000 nM | melting point: 166 to 173 °C

C[C@H](NS(=O)(=O)c1ccc(-c2c(C#N)c3cc(C(F)(F)F)cnc3n2C2CCC2)cc1)C(F)(F)F [Cpd 300, 4-[3-cyano-1-cyclobutyl-5-(trifluoromethyl)-1H-pyrrolo[2,3-b]pyridin-2-yl]-N-[(2S)-1,1,1-trifluoropropan-2-yl]benzenesulfonamide]
IC50 [1]: < 500 nM | melting point: 218 to 220 °C

Cc1cc(S(=O)(=O)N[C@@H](C)C(F)(F)F)cnc1-c1c(C#N)c2cc(C(F)(F)F)cnc2n1C1CCC1 [Cpd 301, 6-[3-cyano-1-cyclobutyl-5-(trifluoromethyl)-1H-pyrrolo[2,3-b]pyridin-2-yl]-5-methyl-N-[(2S)-1,1,1-trifluoropropan-2-yl]pyridine-3-sulfonamide]
IC50 [1]: < 500 nM | melting point: 190 to 194 °C

N#Cc1c(-c2ccc(S(=O)(=O)NC3CCC3)cn2)n(C2CCC2)c2ncc(C(F)(F)F)cc12 [Cpd 302, 6-[3-cyano-1-cyclobutyl-5-(trifluoromethyl)-1H-pyrrolo[2,3-b]pyridin-2-yl]-N-cyclobutylpyridine-3-sulfonamide]
IC50 [1]: < 500 nM | melting point: 197 to 199 °C

C[C@H](NS(=O)(=O)c1ccc(-c2c(C#N)c3cc(C(F)(F)F)cnc3n2-c2ncccn2)nc1)C(F)(F)F [Cpd 303, 6-[3-cyano-1-(pyrimidin-2-yl)-5-(trifluoromethyl)-1H-pyrrolo[2,3-b]pyridin-2-yl]-N-[(2S)-1,1,1-trifluoropropan-2-yl]pyridine-3-sulfonamide]
IC50 [1]: < 500 nM | melting point: 213 to 215 °C

C[C@H](NS(=O)(=O)c1ccc(-c2c(C(N)=O)c3cc(C(F)(F)F)cnc3n2C2CCC2)nc1)C(F)(F)F [Cpd 304, 1-cyclobutyl-5-(trifluoromethyl)-2-(5-{[(2S)-1,1,1-trifluoropropan-2-yl]sulfamoyl}pyridin-2-yl)-1H-pyrrolo[2,3-b]pyridine-3-carboxamide]
IC50 [1]: < 500 nM | melting point: 219 to 221 °C

C[C@H](NS(=O)(=O)c1ccc(-c2c(C#N)c3cc(S(C)(=O)=O)cnc3n2C2CCCC2)nc1)C(F)(F)F [Cpd 305, 6-[3-cyano-1-cyclopentyl-5-(methylsulfonyl)-1H-pyrrolo[2,3-b]pyridin-2-yl]-N-[(2S)-1,1,1-trifluoropropan-2-yl]pyridine-3-sulfonamide]
IC50 [1]: < 500 nM | melting point: 260 to 261 °C

C[C@H](NS(=O)(=O)c1ccc(-c2c(C#N)c3cc(Cl)cnc3n2-c2ccccn2)nc1)C(F)(F)F [Cpd 306, 6-[5-chloro-3-cyano-1-(pyridin-2-yl)-1H-pyrrolo[2,3-b]pyridin-2-yl]-N-[(2S)-1,1,1-trifluoropropan-2-yl]pyridine-3-sulfonamide]
IC50 [1]: < 500 nM | melting point: 179 to 181 °C

C[C@H](NS(=O)(=O)c1ccc(-c2c(C#N)c3cc(Cl)cnc3n2-c2cnccn2)nc1)C(F)(F)F [Cpd 307, 6-[5-chloro-3-cyano-1-(pyrazin-2-yl)-1H-pyrrolo[2,3-b]pyridin-2-yl]-N-[(2S)-1,1,1-trifluoropropan-2-yl]pyridine-3-sulfonamide]
IC50 [1]: < 500 nM | melting point: 247 to 249 °C

C[C@H](NS(=O)(=O)c1ccc(-c2c(C#N)c3cc(Cl)cnc3n2-c2ccccc2)nc1)C(F)(F)F [Cpd 308, 6-(5-chloro-3-cyano-1-phenyl-1H-pyrrolo[2,3-b]pyridin-2-yl)-N-[(2S)-1,1,1-trifluoropropan-2-yl]pyridine-3-sulfonamide]
IC50 [1]: < 500 nM | melting point: 211 to 213 °C

COc1cnc2c(c1)c(C#N)c(-c1ccc(S(=O)(=O)NC3CCC3)cn1)n2C1CCC1 [Cpd 309, 6-(3-cyano-1-cyclobutyl-5-methoxy-1H-pyrrolo[2,3-b]pyridin-2-yl)-N-cyclobutylpyridine-3-sulfonamide]
IC50 [1]: < 500 nM | melting point: 203 to 207 °C

COc1cnc2c(c1)c(C#N)c(-c1ccc(S(=O)(=O)NC3CC3)cn1)n2C1CCC1 [Cpd 310, 6-(3-cyano-1-cyclobutyl-5-methoxy-1H-pyrrolo[2,3-b]pyridin-2-yl)-N-cyclopropylpyridine-3-sulfonamide]
IC50 [1]: < 500 nM | melting point: 161 to 162 °C

COc1cnc2c(c1)c(C#N)c(-c1ccc(S(=O)(=O)NC3(C)CC3)cn1)n2C1CCC1 [Cpd 311, 6-(3-cyano-1-cyclobutyl-5-methoxy-1H-pyrrolo[2,3-b]pyridin-2-yl)-N-(1-methylcyclopropyl)pyridine-3-sulfonamide]
IC50 [1]: < 500 nM | melting point: 179 to 181 °C

COc1cnc2c(c1)c(C#N)c(-c1ncc(S(=O)(=O)NC3(C)CC3)cn1)n2C1CCC1 [Cpd 313, 2-(3-cyano-1-cyclobutyl-5-methoxy-1H-pyrrolo[2,3-b]pyridin-2-yl)-N-(1-methylcyclopropyl)pyrimidine-5-sulfonamide]
IC50 [1]: < 500 nM | melting point: 209 to 212 °C

C[C@H](NS(=O)(=O)c1ccc(-c2c(C#N)c3cc(C(F)(F)F)cnc3n2-c2cnccn2)nc1)C(F)(F)F [Cpd 316, 6-[3-cyano-1-(pyrazin-2-yl)-5-(trifluoromethyl)-1H-pyrrolo[2,3-b]pyridin-2-yl]-N-[(2S)-1,1,1-trifluoropropan-2-yl]pyridine-3-sulfonamide]
IC50 [1]: < 500 nM | melting point: 226 to 228 °C

C[C@H](NS(=O)(=O)c1ccc(-c2c(C#N)c3cc(C(F)(F)F)cnc3n2-c2ccccn2)nc1)C(F)(F)F [Cpd 317, 6-[3-cyano-1-(pyridin-2-yl)-5-(trifluoromethyl)-1H-pyrrolo[2,3-b]pyridin-2-yl]-N-[(2S)-1,1,1-trifluoropropan-2-yl]pyridine-3-sulfonamide]
IC50 [1]: < 500 nM | melting point: 110 to 112 °C

C[C@H](NS(=O)(=O)c1ccc(-c2c(C#N)c3cc(C(F)(F)F)cnc3n2-c2ccccc2)nc1)C(F)(F)F [Cpd 318, 6-[3-cyano-1-phenyl-5-(trifluoromethyl)-1H-pyrrolo[2,3-b]pyridin-2-yl]-N-[(2S)-1,1,1-trifluoropropan-2-yl]pyridine-3-sulfonamide]
IC50 [1]: < 500 nM | melting point: 186 to 188 °C

C[C@H](NS(=O)(=O)c1ccc(-c2c(C#N)c3cc(F)cnc3n2-c2ncccn2)nc1)C(F)(F)F [Cpd 320, 6-[3-cyano-5-fluoro-1-(pyrimidin-2-yl)-1H-pyrrolo[2,3-b]pyridin-2-yl]-N-[(2S)-1,1,1-trifluoropropan-2-yl]pyridine-3-sulfonamide]
IC50 [1]: < 500 nM | melting point: 171 to 173 °C

C[C@H](NS(=O)(=O)c1ccc(-c2c(C#N)c3cc(F)cnc3n2-c2cnccn2)nc1)C(F)(F)F [Cpd 321, 6-[3-cyano-5-fluoro-1-(pyrazin-2-yl)-1H-pyrrolo[2,3-b]pyridin-2-yl]-N-[(2S)-1,1,1-trifluoropropan-2-yl]pyridine-3-sulfonamide]
IC50 [1]: < 500 nM | melting point: 212 to 214 °C

C[C@H](NS(=O)(=O)c1ccc(-c2c(C#N)c3cc(F)cnc3n2-c2ccccn2)nc1)C(F)(F)F [Cpd 322, 6-[3-cyano-5-fluoro-1-(pyridin-2-yl)-1H-pyrrolo[2,3-b]pyridin-2-yl]-N-[(2S)-1,1,1-trifluoropropan-2-yl]pyridine-3-sulfonamide]
IC50 [1]: < 500 nM | melting point: 229 to 231 °C

CSc1cnc2c(c1)c(C#N)c(-c1ccc(S(=O)(=O)N[C@@H](C)C(F)(F)F)cn1)n2C1CCC1 [Cpd 323, 6-[3-cyano-1-cyclobutyl-5-(methylsulfanyl)-1H-pyrrolo[2,3-b]pyridin-2-yl]-N-[(2S)-1,1,1-trifluoropropan-2-yl]pyridine-3-sulfonamide]
IC50 [1]: < 500 nM | melting point: 154 to 158 °C

C[C@H](NS(=O)(=O)c1ccc(-c2c(C(N)=O)c3cc(Cl)cnc3n2C2CCCC2)nc1)C(F)(F)F [Cpd 324, 5-chloro-1-cyclopentyl-2-(5-{[(2S)-1,1,1-trifluoropropan-2-yl]sulfamoyl}pyridin-2-yl)-1H-pyrrolo[2,3-b]pyridine-3-carboxamide]
IC50 [1]: < 500 nM | melting point: 289 to 295 °C

NC(=O)c1c(-c2ccc(S(=O)(=O)NC3(C(F)(F)F)CC3)cn2)n(C2CCC2)c2ncc(Cl)cc12 [Cpd 325, 5-chloro-1-cyclobutyl-2-(5-{[1-(trifluoromethyl)cyclopropyl]sulfamoyl}pyridin-2-yl)-1H-pyrrolo[2,3-b]pyridine-3-carboxamide]
IC50 [1]: < 500 nM | melting point: 238 to 240 °C

CC(C)(NS(=O)(=O)c1ccc(-c2c(C(N)=O)c3cc(Cl)cnc3n2C2CCC2)nc1)C(F)(F)F [Cpd 326, 5-chloro-1-cyclobutyl-2-{5-[(1,1,1-trifluoro-2-methylpropan-2-yl)sulfamoyl]pyridin-2-yl}-1H-pyrrolo[2,3-b]pyridine-3-carboxamide]
IC50 [1]: < 500 nM | melting point: 239 to 241 °C
